Like-named read-outs stand apart in the source and are kept apart here.
Experiments:
229E Mpro = 229E Mpro (Human coronavirus 229E, UniProt P0C6X1); assay: 229E Mpro enzymatic assay (standard methods, SARS-CoV2 Mpro assay given as exemplary); format: biochemical, human coronavirus (HCov) 229E
Protocol: Compounds were assayed using standard methods to assess compound activity and IC50. As an exemplary for assessment of the SARS-COV2 Mpro, the C-His6-tagged Mpro (NC_045512) was cloned, expressed in E. coli and purified. The assay buffer contained 20 mM of Tris-HCl (pH 7.3), 100 mM of NaCl, 1 mM of EDTA, 5 mM of TCEP and 0.1% BSA. The final concentrations of the Mpro protein and substrate were 25 nM and 25 μM, respectively, in the Mpro enzymatic assay. The Km of the Mpro substrate for the protease was 13.5 μM.
The compounds were added to an assay plate. […] For no inhibition control (ZPE, zero percent effect), no compound was added.
IC50 values of compounds were calculated with the GraphPad Prism software using the nonlinear regression model of log(inhibitor) vs. response—Variable slope (four parameters). The inhibition activity was calculated using the formula below, IC50 values is calculated using the Inhibition % data.
Inhibition %=[(Sample-Average ZPE)/(Average HPE-Average ZPE)]*100%^#

[1] = molecular target: COVID-19 (nCoV-2019, SARS-CoV2) Mpro (Severe acute respiratory syndrome coronavirus 2, UniProt P0DTD1); assay: COVID-19 (nCoV-2019, SARS-CoV2) Mpro enzymatic assay; format: biochemical; details: 25 nM Mpro, 25 μM substrate; read-out: COVID-19 Mpro IC50
HCov OC43 = assay: HCoV OC43 cytopathic effect (CPE) assay, CellTiter Glo; format: cell-based, human coronavirus (HCov) OC43
Protocol: Example 238: Evaluation of antiviral activity of compounds against human coronavirus (HCov) 229E and OC43 in the cytopathic effect (CPE) assays
Compounds were assayed using standard methods against multiple coronaviral strains, including HCoV 229E and OC43 strains. The antiviral activity of compounds was calculated based on the protection of the virus-induced CPE at each concentration normalized by the virus control.
Reference compound used was remdesivir; detection reagent: CellTiter Glo.) The CPE were measured by CellTiter Glo following the manufacturer's manual. The antiviral activity of compounds was calculated based on the protection of the virus-induced CPE at each concentration normalized by the virus control.
Cell viability was measured with CellTiter Glo.

[2] = Betacoronavirus 1, OC43, read-out: OC43 IC50 (uM) MEDIAN, median
[3] = read-out: OC43 IC50 (uM) MEDIAN, median

Sequence of 229E Mpro (P0C6X1 2966-3267): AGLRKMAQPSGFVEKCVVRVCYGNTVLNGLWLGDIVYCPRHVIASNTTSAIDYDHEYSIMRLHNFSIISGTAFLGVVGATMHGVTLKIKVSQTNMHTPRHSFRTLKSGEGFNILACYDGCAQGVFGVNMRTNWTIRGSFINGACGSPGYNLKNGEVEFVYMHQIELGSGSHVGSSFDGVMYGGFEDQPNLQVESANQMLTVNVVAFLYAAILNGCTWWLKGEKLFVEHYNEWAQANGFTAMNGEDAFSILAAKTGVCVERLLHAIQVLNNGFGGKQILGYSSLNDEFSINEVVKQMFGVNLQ

N#CN1C[C@H](O)C[C@@H]1C(=O)N(c1ccc(C2(C(F)(F)F)CC2)cc1)C(C(=O)NC1CCC(F)(F)CC1)c1cncc(F)c1 (single isomer, unassigned) [Compound 815a Isomer 1]
EC50 (229E Mpro; 229E Mpro EC50): < 2 µM | IC50 [1]: < 2 µM | IC50 (HCov OC43; [2]): < 2 µM

CC(C)(C)c1ccc(N(C(=O)[C@H]2C[C@@](C)(O)CN2C#N)C(C(=O)NC2CCOCC2)c2cccnc2)cc1 (single isomer, unassigned) [1142 Isomer 2]
EC50 (229E Mpro; read-out: 229E Mpro EC50): < 2 µM | IC50 [1]: 2 to 10 µM | IC50 (HCov OC43; [3]): 10 to 30 µM

N#CN1C[C@@H]2CC[C@@H]2[C@@H]1C(=O)N(c1ccc(S(F)(F)(F)(F)F)cc1)C(C(=O)NC1CCC(F)(F)CC1)c1cncc(F)c1 (single isomer, unassigned) [1097 Isomer 1]
EC50 (229E Mpro; 229E Mpro EC50): < 2 µM | IC50 [1]: < 2 µM | IC50 (HCov OC43; [2]): < 2 µM

CC(C)(C)c1ccc(N(C(=O)[C@H]2[C@H](F)CCN2C#N)C(C(=O)NC2CCCCC2)c2cccnc2)cc1 (single isomer, unassigned) [Compound 910 Isomer 2]
EC50 (229E Mpro; read-out: 229E Mpro EC50): < 2 µM | IC50 [1]: 10 to 30 µM | IC50 (HCov OC43; [3]): 2 to 10 µM

N#CN1CC(=O)NC[C@@H]1C(=O)N(c1ccc(S(F)(F)(F)(F)F)cc1)C(C(=O)NC1CCOCC1)c1cccnc1 (stereo partly drawn) [Compound 811, 1-cyano-5-oxo-N-[2-oxo-1-(3-pyridyl)-2-(tetrahydropyran-4-ylamino)ethyl]-N-[4-(pentafluoro-λ^6-sulfanyl)phenyl]piperazine-2-carboxamide]
EC50 (229E Mpro; 229E Mpro EC50): < 2 µM | IC50 [1]: < 2 µM | IC50 (HCov OC43; [2]): < 2 µM

N#CN1C[C@H]2C[C@H]2[C@@H]1C(=O)N(c1ccc(S(F)(F)(F)(F)F)cc1)C(C(=O)NC1CCC(F)(F)CC1)c1cncc(F)c1 (stereo partly drawn) [Compound 1095b, (1R,2R,5S)-3-cyano-N-[2-[(4,4-difluorocyclohexyl)amino]-1-(5-fluoro-3-pyridyl)-2-oxo-ethyl]-N-[4-(pentafluoro-λ^6-sulfanyl)phenyl]-3-azabicyclo[3.1.0]hexane-2-carboxamide]
EC50 (229E Mpro; 229E Mpro EC50): < 2 µM | IC50 [1]: < 2 µM | IC50 (HCov OC43; [2]): < 2 µM

CC1(C)CN(C#N)[C@@H](C(=O)N(c2ccc(C(C)(C)C)cc2)C(C(=O)NC2CCOCC2)c2cccnc2)CO1 (single isomer, unassigned) [1141 Isomer 1]
EC50 (229E Mpro; 229E Mpro EC50): 10 to 30 µM | IC50 [1]: 2 to 10 µM | IC50 (HCov OC43; [3]): 2 to 10 µM

O=C(NC1CCC(F)(F)CC1)C(c1cncc(F)c1)N(C(=O)c1cnc[nH]1)c1ccc(C2CC2)cc1F (single isomer, unassigned) [1336 Isomer 2, N-(4-cyclopropyl-2-fluorophenyl)-N-(2-((4,4-difluorocyclohexyl)amino)-1-(5-fluoropyridin-3-yl)-2-oxoethyl)-1H-imidazole-5-carboxamide]
EC50 (229E Mpro; 229E Mpro EC50): 10 to 30 µM | IC50 [1]: 10 to 30 µM | IC50 (HCov OC43; [3]): > 30 µM

CO[C@@H]1C[C@H](C(=O)N(c2ccc(S(F)(F)(F)(F)F)cc2)C(C(=O)N2CCC3(COC3)C2)c2cccnc2)N(C#N)C1 (stereo partly drawn) [Compound 1174, (2R,4R)-1-cyano-4-methoxy-N-[2-(2-oxa-7-azaspiro[3.4]octan-7-yl)-2-oxo-1-(3-pyridyl)ethyl]-N-[4-(pentafluoro-λ^6-sulfanyl)phenyl]pyrrolidine-2-carboxamide]
EC50 (229E Mpro; 229E Mpro EC50): < 2 µM | IC50 [1]: 2 to 10 µM | IC50 (HCov OC43; [2]): < 2 µM

CO[C@@H]1C[C@H](C(=O)N(c2ccc(S(F)(F)(F)(F)F)cc2)C(C(=O)NCCc2cc(F)cc(F)c2)c2cccnc2)N(C#N)C1 (single isomer, unassigned) [1196 Isomer 2]
EC50 (229E Mpro; read-out: 229E Mpro EC50): < 2 µM | IC50 [1]: < 2 µM | IC50 (HCov OC43; [3]): < 2 µM

CO[C@@H]1C[C@H](C(=O)N(c2ccc(S(F)(F)(F)(F)F)cc2)C(C(=O)N2CCN(C(=O)OC(C)(C)C)C2)c2cccnc2)N(C#N)C1 (single isomer, unassigned) [1148d Isomer 1]
EC50 (229E Mpro; 229E Mpro EC50): < 2 µM | IC50 [1]: 2 to 10 µM | IC50 (HCov OC43; [2]): < 2 µM

CC(C)(C)OC(=O)NC1CCN(C(=O)C(c2cccnc2)N(C(=O)[C@H]2CCCN2C#N)c2ccc(C(C)(C)C)cc2)CC1 (stereo partly drawn) [Compound 966b]
EC50 (229E Mpro; 229E Mpro EC50): 2 to 10 µM | IC50 [1]: 10 to 30 µM | IC50 (HCov OC43; [2]): 10 to 30 µM
